Experimental data reported in patent EP4038059B1, “SUBSTITUTED CARBAZOLE COMPOUNDS” (Bristol-Myers Squibb Company, priority 2019, dated 2021).

Legend:
Type in all cases: cell-based
human TLR9 = target: T1, human TLR9 (Homo sapiens, UniProt Q9NR96); assay: TLR9 inhibition reporter assay (HEK-Blue SEAP); settings: HEK-Blue cells overexpressing human TLR9, stimulated with ODN2006 5 nM, 22 h incubation
T1 construct: host or cells: HEK-Blue cells
T1 sequence (Q9NR96 26-1032): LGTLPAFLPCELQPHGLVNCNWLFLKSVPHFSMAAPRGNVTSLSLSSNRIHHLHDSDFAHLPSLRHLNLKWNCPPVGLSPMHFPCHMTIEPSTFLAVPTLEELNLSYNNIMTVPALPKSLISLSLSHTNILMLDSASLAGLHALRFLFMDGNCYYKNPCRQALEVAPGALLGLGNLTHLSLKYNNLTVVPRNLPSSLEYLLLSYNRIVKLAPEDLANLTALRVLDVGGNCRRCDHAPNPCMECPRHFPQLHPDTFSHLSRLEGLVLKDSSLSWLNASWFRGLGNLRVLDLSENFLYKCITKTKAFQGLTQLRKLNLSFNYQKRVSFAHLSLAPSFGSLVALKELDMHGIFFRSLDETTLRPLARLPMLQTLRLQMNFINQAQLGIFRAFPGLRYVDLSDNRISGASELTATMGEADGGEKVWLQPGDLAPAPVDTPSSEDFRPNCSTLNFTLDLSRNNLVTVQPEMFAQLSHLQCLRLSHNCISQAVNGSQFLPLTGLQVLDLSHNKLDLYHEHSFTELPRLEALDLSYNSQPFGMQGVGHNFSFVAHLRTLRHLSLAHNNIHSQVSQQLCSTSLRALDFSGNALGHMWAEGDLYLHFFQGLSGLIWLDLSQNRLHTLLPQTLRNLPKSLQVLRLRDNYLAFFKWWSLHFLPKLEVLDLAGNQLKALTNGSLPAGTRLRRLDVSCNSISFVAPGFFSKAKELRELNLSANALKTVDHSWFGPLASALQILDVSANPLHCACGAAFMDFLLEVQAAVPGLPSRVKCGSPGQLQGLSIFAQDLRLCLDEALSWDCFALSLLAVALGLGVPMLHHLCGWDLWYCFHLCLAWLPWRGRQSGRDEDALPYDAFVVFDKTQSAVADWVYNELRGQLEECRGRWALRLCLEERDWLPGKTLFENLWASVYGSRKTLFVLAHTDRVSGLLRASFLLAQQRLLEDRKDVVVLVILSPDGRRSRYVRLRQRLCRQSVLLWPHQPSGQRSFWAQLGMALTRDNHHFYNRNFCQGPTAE
Experimental: (§1) HEK-Blue™-cells (Invivogen) overexpressing human TLR7, TLR8 or TLR9 receptors were used for screening inhibitors of these receptors using an inducible SEAP (secreted embryonic alkaline phosphatase) reporter gene under the control of the IFN-β minimal promoter fused to five NF-κB and AP-1-binding sites. Briefly, cells are seeded into Greiner 384 well plates (15000 cells per well for TLR7, 20,000 for TLR8 and 25,000 for TLR9) and then treated with test compounds in DMSO to yield a final dose response concentration range of 0.05 nM - 50 µM. After a 30 minute compound pre-treatment at room temperature, the cells are then stimulated with a TLR7 ligand (gardiquimod at a final concentration of 7.5 µM), TLR8 ligand (R848 at a final concentration of 15.9 µM) or TLR9 ligand (ODN2006 at a final concentration of 5 nM) to activate NF-κB and AP-1 which induce the production of SEAP. After a 22 h incubation at 37°C, 5% CO2, SEAP levels are determined with the addition of HEK-Blue™ Detection reagent (Invivogen), a cell culture medium that allows for detection of SEAP, according to manufacturer's specifications. The percent inhibition is determined as the % reduction in the HEK-Blue signal present in wells treated with agonist plus DMSO alone compared to wells treated with a known inhibitor.

human TLR7 = target: T2, human TLR7 (Homo sapiens, UniProt Q9NYK1); assay: TLR7 inhibition reporter assay (HEK-Blue SEAP); settings: HEK-Blue cells overexpressing human TLR7, stimulated with gardiquimod 7.5 µM, 22 h incubation
T2 construct: host or cells: HEK-Blue cells
T2 sequence (Q9NYK1 27-1049): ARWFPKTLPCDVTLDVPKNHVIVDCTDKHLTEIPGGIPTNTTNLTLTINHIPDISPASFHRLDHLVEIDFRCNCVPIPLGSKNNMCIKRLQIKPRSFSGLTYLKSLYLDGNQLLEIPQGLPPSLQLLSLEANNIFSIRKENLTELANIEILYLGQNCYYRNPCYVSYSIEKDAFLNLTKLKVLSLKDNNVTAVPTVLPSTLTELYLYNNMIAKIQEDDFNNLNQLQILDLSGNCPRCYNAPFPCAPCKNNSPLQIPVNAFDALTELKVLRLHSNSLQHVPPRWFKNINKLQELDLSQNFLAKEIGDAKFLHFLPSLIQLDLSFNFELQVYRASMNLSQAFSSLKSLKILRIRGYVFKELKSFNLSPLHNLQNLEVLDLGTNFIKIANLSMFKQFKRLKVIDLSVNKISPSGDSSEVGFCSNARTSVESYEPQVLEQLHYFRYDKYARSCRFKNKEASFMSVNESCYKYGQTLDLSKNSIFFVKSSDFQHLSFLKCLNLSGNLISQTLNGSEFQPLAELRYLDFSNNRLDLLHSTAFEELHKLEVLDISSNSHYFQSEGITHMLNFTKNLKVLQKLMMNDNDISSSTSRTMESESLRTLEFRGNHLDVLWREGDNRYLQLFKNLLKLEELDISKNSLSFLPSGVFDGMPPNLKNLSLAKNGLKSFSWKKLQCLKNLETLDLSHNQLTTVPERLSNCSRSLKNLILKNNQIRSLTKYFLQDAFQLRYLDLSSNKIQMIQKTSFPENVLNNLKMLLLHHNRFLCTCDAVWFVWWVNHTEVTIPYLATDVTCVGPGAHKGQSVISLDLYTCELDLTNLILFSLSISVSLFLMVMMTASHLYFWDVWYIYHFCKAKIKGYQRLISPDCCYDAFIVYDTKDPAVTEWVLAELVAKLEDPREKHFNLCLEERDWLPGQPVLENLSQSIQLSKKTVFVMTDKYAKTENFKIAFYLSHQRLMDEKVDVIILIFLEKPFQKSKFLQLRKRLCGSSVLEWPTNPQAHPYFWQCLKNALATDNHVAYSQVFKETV
Experimental: as §1

human TLR8 = target: T3, human TLR8 (Homo sapiens, UniProt Q9NR97); assay: TLR8 inhibition reporter assay (HEK-Blue SEAP); settings: HEK-Blue cells overexpressing human TLR8, stimulated with R848 15.9 µM, 22 h incubation
T3 construct: host or cells: HEK-Blue cells
T3 sequence (Q9NR97 27-1041): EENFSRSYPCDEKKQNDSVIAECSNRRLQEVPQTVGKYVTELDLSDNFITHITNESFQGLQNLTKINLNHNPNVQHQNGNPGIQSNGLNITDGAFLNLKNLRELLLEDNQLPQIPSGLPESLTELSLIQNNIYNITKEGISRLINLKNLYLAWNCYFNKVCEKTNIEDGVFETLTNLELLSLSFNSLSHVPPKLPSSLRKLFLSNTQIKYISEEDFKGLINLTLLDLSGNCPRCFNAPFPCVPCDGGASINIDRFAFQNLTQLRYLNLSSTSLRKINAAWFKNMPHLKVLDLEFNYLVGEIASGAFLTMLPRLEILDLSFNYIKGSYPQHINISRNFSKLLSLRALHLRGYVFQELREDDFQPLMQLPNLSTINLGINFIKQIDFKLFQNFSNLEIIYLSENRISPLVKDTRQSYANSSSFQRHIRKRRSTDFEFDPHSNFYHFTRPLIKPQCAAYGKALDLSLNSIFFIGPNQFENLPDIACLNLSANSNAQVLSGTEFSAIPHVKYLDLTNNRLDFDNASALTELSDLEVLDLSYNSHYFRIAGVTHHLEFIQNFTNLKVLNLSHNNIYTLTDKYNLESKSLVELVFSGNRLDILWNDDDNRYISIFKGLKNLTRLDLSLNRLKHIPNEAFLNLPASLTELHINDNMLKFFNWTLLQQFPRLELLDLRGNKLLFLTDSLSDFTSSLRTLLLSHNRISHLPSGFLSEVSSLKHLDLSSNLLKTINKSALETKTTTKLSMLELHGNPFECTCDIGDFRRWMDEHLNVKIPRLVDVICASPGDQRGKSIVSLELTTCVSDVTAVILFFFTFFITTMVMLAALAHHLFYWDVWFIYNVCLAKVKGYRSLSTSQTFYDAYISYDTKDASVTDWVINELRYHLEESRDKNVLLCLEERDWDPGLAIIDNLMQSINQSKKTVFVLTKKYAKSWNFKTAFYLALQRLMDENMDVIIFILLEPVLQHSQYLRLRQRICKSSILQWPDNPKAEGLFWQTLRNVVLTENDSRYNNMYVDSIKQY
Experimental: as §1

SMILES | IC50 (human TLR9) [nM] | IC50 (human TLR7) [nM] | IC50 (human TLR8) [nM]
Cc1c(-c2cc(C)c3c(c2)[nH]c2ccc(C4CCN(CC(C)(C)O)CC4)cc23)cn(C)c(=O)c1C [Example 18, 5-(6-(1-(2-Hydroxy-2-methylpropyl)piperidin-4-yl)-4-methyl-9H-carbazol-2-yl)-1,3,4-trimethylpyridin-2(1H)-one] | 650 | 3.2 | 0.9
Cc1cc(-c2cc(C)c3ncnn3c2)cc2[nH]c3ccc(C4CCN(CC(C)(C)O)CC4)cc3c12 [Example 19] | 416 | 1.8 | 4
COc1cc(-c2cc(C)c3c(c2)[nH]c2ccc(C4CCN(CC(C)(C)O)CC4)cc23)cn2ncnc12 [Example 20] | 224 | 1.9 | 2.1
Cc1cc(-c2cc(C)c3c(c2)[nH]c2ccc(C4CCN(CC(C)(C)O)CC4)cc23)cc(C)n1 [Example 21] | 60 | 1.5 | 12
Cc1cc2c(cc1-c1cc(C)c3ncnn3c1)[nH]c1ccc(C3CCN(CC(C)(C)O)CC3)cc12 [Example 22] | 342 | 1.6 | 0.7
COc1cc(-c2cc3[nH]c4ccc(C5CCN(CC(C)(C)O)CC5)cc4c3cc2C)cn2ncnc12 [Example 23] | 259 | 4.1 | 0.9
Cc1cc2c(cc1-c1cn(C)c(=O)c(C)c1C)[nH]c1ccc(C3CCN(CC(C)(C)O)CC3)cc12 [Example 24] | 388 | 68 | 1.5
COc1cc(-c2cc3[nH]c4ccc(C5CCN(CC(C)(C)O)CC5)cc4c3c(C)c2C)cn2ncnc12 [Example 25] | 264 | 1.8 | 0.4
COc1cc(-c2cc3[nH]c4ccc(C5CCCNC5)cc4c3c(C)c2C)cn2ncnc12 (stereo not drawn) [Example 26, 2-(8-methoxy-[1,2,4]triazolo[1,5-a]pyridin-6-yl)-3,4-dimethyl-6-(piperidin-3-yl)-9H-carbazole] | 271 | 1.3 | 1.6
COc1cc(-c2cc3[nH]c4ccc(C5CCCN(C(=O)CN(C)C)C5)cc4c3c(C)c2C)cn2ncnc12 (stereo not drawn) [Example 27, 2-(dimethylamino)-1-(3-(7-(8-methoxy-[1,2,4]triazolo[1,5-a]pyridin-6-yl)-5,6-dimethyl-9H-carbazol-3-yl)piperidin-1-yl)ethan-1-one] | 1170 | 3.3 | 3.8
COc1cc(-c2cc3[nH]c4ccc(C5CCCN(C6CCOCC6)C5)cc4c3c(C)c2C)cn2ncnc12 (stereo not drawn) [Example 28, 2-(8-methoxy-[1,2,4]triazolo[1,5-a]pyridin-6-yl)-3,4-dimethyl-6-(1-(tetrahydro-2H-pyran-4-yl)piperidin-3-yl)-9H-carbazole] | 523 | 7.8 | 0.7
COc1cc(-c2cc3[nH]c4ccc(C5CNC5)cc4c3c(C)c2C)cn2ncnc12 [Example 29, 6-(azetidin-3-yl)-2-(8-methoxy-[1,2,4]triazolo[1,5-a]pyridin-6-yl)-3,4-dimethyl-9H-carbazole] | 228 | 3.1 | 1
COc1cc(-c2cc3[nH]c4ccc(C5CN(CCS(C)(=O)=O)C5)cc4c3c(C)c2C)cn2ncnc12 [Example 30, 2-(8-methoxy-[1,2,4]triazolo[1,5-a]pyridin-6-yl)-3,4-dimethyl-6-(1-(2-(methylsulfonyl)ethyl)azetidin-3-yl)-9H-carbazole] | 813 | 5.5 | 1
COc1cc(-c2cc3[nH]c4ccc(C5CCCN(CC(C)(C)O)C5)cc4c3c(C)c2C)cn2ncnc12 (stereo not drawn) [Example 31] | 587 | 8.1 | 1.2
COc1cc(-c2cc3[nH]c4ccc(C5CCCN(CCS(C)(=O)=O)C5)cc4c3c(C)c2C)cn2ncnc12 (stereo not drawn) [Example 32] | 802 | 9.4 | 2
COc1cc(-c2cc3[nH]c4ccc(C5CCCN(C6COC6)C5)cc4c3c(C)c2C)cn2ncnc12 (stereo not drawn) [Example 33] | 1230 | 15.5 | 2.2
COc1cc(-c2cc3[nH]c4ccc(C5CCCN(CC#N)C5)cc4c3c(C)c2C)cn2ncnc12 (stereo not drawn) [Example 34] | 321 | 1.3 | 2.5
COc1cc(-c2cc3[nH]c4ccc(C5CN(C(=O)CN(C)C)C5)cc4c3c(C)c2C)cn2ncnc12 [Example 35] | 845 | 4.5 | 3.3
